Our source for the IC50 values is patent publication US8710089B2, “Triazole derivatives as ghrelin analogue ligands of growth hormone secretagogue receptors” (Zentaris GmbH, priority 2005, dated 2014).

The target of this experiment is T1, human GHS-R 1a (Homo sapiens, UniProt Q92847).
T1 construct: expressed in transfected cells; host or cells: LLC PK-1 porcine renal epithelial cells (ECACC No. 86121112), isolated plasma membranes
T1 sequence (Q92847 whole entry): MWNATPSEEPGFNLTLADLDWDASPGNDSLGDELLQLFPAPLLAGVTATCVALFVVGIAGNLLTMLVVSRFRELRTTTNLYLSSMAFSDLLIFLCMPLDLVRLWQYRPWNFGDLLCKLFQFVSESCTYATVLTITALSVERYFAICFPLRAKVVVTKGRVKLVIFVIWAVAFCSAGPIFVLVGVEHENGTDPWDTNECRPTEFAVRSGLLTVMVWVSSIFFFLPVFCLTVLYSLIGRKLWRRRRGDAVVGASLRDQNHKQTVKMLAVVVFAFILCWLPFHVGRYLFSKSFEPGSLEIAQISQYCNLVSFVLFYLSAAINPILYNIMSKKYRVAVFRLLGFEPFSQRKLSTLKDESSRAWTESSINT
The experiment in a line: GHS-R 1a receptor-ligand binding assay (membrane preparations from transfected LLC PK-1 cells). The note with it: displacement of 125I-His9-ghrelin (60 pM); membranes of LLC PK-1 cells transfected with human GHS-R 1a; mean of at least two independent experiments in triplicates. On the procedure: (J. Med. […] Med. Chem. 2003, 46: 1191-1203), were incubated in homogenization buffer HB [50 mM Tris (pH 7.3), 5 mM MgCl2, 2.5 mM EDTA, and 30 μg/mL bacitracin (Sigma)] for 60 min at 25° C. (steady-state conditions) with 60 pM ^125I-[…]-ghrelin (Amersham) in the presence or absence of competing compounds (compounds of the invention). […] Nonspecific binding was defined using an excess (10^-6 M) of ghrelin. The binding reaction was stopped by addition of 4 mL of ice-cold HB followed by rapid filtration over Whatman GP/C filters presoaked with 0.5% polyethyleneimine to prevent excessive binding of radioligand to the filters. […] IC50 values given are the mean of at least two independent experiments performed in triplicates.
(In a radioligand displacement assay an active substance lowers the binding of a labelled ligand.)
One may read the IC50 as the concentration at which inhibition is half-maximal. Low values mean greater potency, high ones weaker potency. `CC(C)(N)C(=O)N[C@H](Cc1c[nH]c2ccccc12)c1nnc(CCc2c[nH]c3ccccc23)n1Cc1ccccc1` [compound 8, (R)—N-(1-(5-(2-(1H-indol-3-yl)ethyl)-4-benzyl-4H-1,2,4-triazol-3-yl)-2-(1H-indol-3-yl)ethyl)-2-amino-2-methylpropanamide]: the IC50 is 18 nM.
Next, `COc1ccc(Cn2c(CCc3c[nH]c4ccccc34)nnc2[C@@H](Cc2c[nH]c3ccccc23)NC(=O)C2CCCCN2)c(OC)c1` (stereo partly drawn) [compound 36, (R)—N-(1-(5-(2-(1H-indol-3-yl)ethyl)-4-(2,4-dimethoxybenzyl)-4H-1,2,4-triazol-3-yl)-2-(1H-indol-3-yl)ethyl)piperidine-2-carboxamide]: 53 nM.
Next, `CC(C)(C)Sc1nnc([C@@H](Cc2c[nH]c3ccccc23)NC(=O)C(C)(C)N)n1Cc1ccco1` [Example 39 from WO 00/54729 A2, (R)—N-(1-(5-(tert-butylthio)-4-(furan-2-ylmethyl)-4H-1,2,4-triazol-3-yl)-2-(1H-indol-3-yl)ethyl)-2-amino-2-methylpropanamide, reference compound]: about 5000 nM.
Next, `CC(C)(N)C(=O)N[C@H](Cc1c[nH]c2ccccc12)c1nnc(CCc2ccccc2)n1Cc1cccc2ccccc12` [compound 27, (R)—N-(2-(1H-indol-3-yl)-1-(4-(naphthalen-1-ylmethyl)-5-phenethyl-4H-1,2,4-triazol-3-yl)ethyl)-2-amino-2-methylpropanamide]: 126 nM.
With `COc1ccc(Cn2c(CCc3ccccc3)nnc2[C@@H](Cc2c[nH]c3ccccc23)NC(=O)C(C)(C)N)c(OC)c1` [compound 179, N—((R)-1-(4-(2,4-dimethoxybenzyl)-5-phenethyl-4H-1,2,4-triazol-3-yl)-2-(1H-indol-3-yl)ethyl)-2-amino-2-methylpropanamide], the half-inhibitory concentration (IC50) was 62 nM.
On to `O=C(N[C@H](Cc1c[nH]c2ccccc12)c1nnc(Cc2ccccc2)n1Cc1ccccn1)c1ccccn1` [compound 164, N—((R)-1-(5-benzyl-4-((pyridin-2-yl)methyl)-4H-1,2,4-triazol-3-yl)-2-(1H-indol-3-yl)ethyl)picolinamide], for which the IC50 is 207 nM.
Compound `COc1ccc(Cn2c(CCc3ccccc3)nnc2[C@@H](Cc2c[nH]c3ccccc23)NC(=O)CN)c(OC)c1` [compound 75, (R)—N-(1-(4-(2,4-dimethoxybenzyl)-5-phenethyl-4H-1,2,4-triazol-3-yl)-2-(1H-indol-3-yl)ethyl)-2-aminoacetamide] gave an IC50 of 140 nM.
Next, `COc1cc(Cn2c(Cc3ccccc3)nnc2[C@@H](Cc2c[nH]c3ccccc23)NC(=O)C(C)(C)N)cc(OC)c1` [compound 108, (R)—N-(1-(4-(3,5-dimethoxybenzyl)-5-benzyl-4H-1,2,4-triazol-3-yl)-2-(1H-indol-3-yl)ethyl)-2-amino-2-methylpropanamide]: 250 nM.
With `O=C(N[C@H](Cc1c[nH]c2ccccc12)c1nnc(CCc2c[nH]c3ccccc23)n1Cc1ccccc1)C1CCCNC1` (mixture of isomers) [compound 55, (R)—N-(1-(5-(2-(1H-indol-3-yl)ethyl)-4-benzyl-4H-1,2,4-triazol-3-yl)-2-(1H-indol-3-yl)ethyl)piperidine-3-carboxamide], the concentration for half-maximal inhibition (IC50) is 11 nM.
Next, `COc1cc(Cn2c(CCc3c[nH]c4ccccc34)nnc2[C@@H](Cc2c[nH]c3ccccc23)NC(=O)C(C)(C)N)cc(OC)c1` [compound 21, (R)—N-(1-(5-(2-(1H-indol-3-yl)ethyl)-4-(3,5-dimethoxybenzyl)-4H-1,2,4-triazol-3-yl)-2-(1H-indol-3-yl)ethyl)-2-amino-2-methylpropanamide]: 203 nM; `CC(C)(N)C(=O)N[C@H](Cc1c[nH]c2ccccc12)c1nnc(CCc2c[nH]c3ccccc23)n1Cc1ccc(Cl)c(Cl)c1` [compound 28, (R)—N-(1-(5-(2-(1H-indol-3-yl)ethyl)-4-(3,4-dichlorobenzyl)-4H-1,2,4-triazol-3-yl)-2-(1H-indol-3-yl)ethyl)-2-amino-2-methylpropanamide]: 79 nM.
Next, `CCc1ccc(Cn2c(CCc3ccccc3)nnc2[C@@H](Cc2c[nH]c3ccccc23)NC(=O)C(C)(C)N)cc1` [compound 43, (R)—N-(1-(4-(4-ethylbenzyl)-5-phenethyl-4H-1,2,4-triazol-3-yl)-2-(1H-indol-3-yl)ethyl)-2-amino-2-methylpropanamide]: 44 nM; `CCCCCCn1c(CCCc2c[nH]c3ccccc23)nnc1[C@@H](Cc1c[nH]c2ccccc12)NC(=O)C(C)(C)N` [compound 16, (R)—N-(1-(5-(3-(1H-indol-3-yl)propyl)-4-hexyl-4H-1,2,4-triazol-3-yl)-2-(1H-indol-3-yl)ethyl)-2-amino-2-methylpropanamide]: 240 nM.
Next, `COc1ccc(Cn2c(CCc3ccccc3)nnc2[C@@H](Cc2c[nH]c3ccccc23)NC(=O)Cc2cccnc2)cc1` [compound 58, (R)—N-(1-(4-(4-methoxybenzyl)-5-phenethyl-4H-1,2,4-triazol-3-yl)-2-(1H-indol-3-yl)ethyl)-2-(pyridin-3-yl)acetamide]: 29 nM.
For the compound `CC(C)(N)C(=O)N[C@H](Cc1c[nH]c2ccccc12)c1nnc(CCc2ccccc2)n1Cc1ccccc1` [compound 173, N—((R)-1-(4-benzyl-5-phenethyl-4H-1,2,4-triazol-3-yl)-2-(1H-indol-3-yl)ethyl)-2-amino-2-methylpropanamide], the IC50 came to 114 nM.
Regarding `COc1ccc(Cn2c(CCc3ccccc3)nnc2[C@@H](Cc2c[nH]c3ccccc23)NC(=O)[C@H](C)N)cc1` [compound 57, (S)—N—((R)-1-(4-(4-methoxybenzyl)-5-phenethyl-4H-1,2,4-triazol-3-yl)-2-(1H-indol-3-yl)ethyl)-2-aminopropanamide], the IC50 came out at 140 nM.
As for `O=C(N[C@H](Cc1c[nH]c2ccccc12)c1nnc(CCc2ccccc2)n1Cc1ccco1)c1ccccn1` [compound 182, N—((R)-1-(4-((furan-2-yl)methyl)-5-phenethyl-4H-1,2,4-triazol-3-yl)-2-(1H-indol-3-yl)ethyl)picolinamide], the IC50 was 81 nM.
Next, `COc1ccc(Cn2c(CCc3c[nH]c4ccccc34)nnc2[C@@H](Cc2c[nH]c3ccccc23)NC(=O)[C@@H]2CCCN2)cc1` [compound 89, (S)—N—((R)-1-(5-(2-(1H-indol-3-yl)ethyl)-4-(4-methoxybenzyl)-4H-1,2,4-triazol-3-yl)-2-(1H-indol-3-yl)ethyl)pyrrolidine-2-carboxamide]: 9 nM; `COc1ccc(Cn2c(CCc3c[nH]c4ccccc34)nnc2[C@H](Cc2c[nH]c3ccccc23)NC(=O)C(C)(C)N)c(OC)c1` [compound 18, (S)—N-(1-(5-(2-(1H-indol-3-yl)ethyl)-4-(2,4-dimethoxybenzyl)-4H-1,2,4-triazol-3-yl)-2-(1H-indol-3-yl)ethyl)-2-amino-2-methylpropanamide]: 83 nM; `COc1ccc(Cn2c(CCc3c[nH]c4ccccc34)nnc2[C@@H](Cc2c[nH]c3ccccc23)NC(=O)C2CCCCC2N)c(OC)c1` (stereo partly drawn) [compound 86, (R)—N-(1-(5-(2-(1H-indol-3-yl)ethyl)-4-(2,4-dimethoxybenzyl)-4H-1,2,4-triazol-3-yl)-2-(1H-indol-3-yl)ethyl)-2-cis-aminocyclohexanecarboxamide]: 143 nM.
Next, `COc1ccc(Cn2c(CCc3c[nH]c4ccccc34)nnc2[C@@H](Cc2c[nH]c3ccccc23)NC(=O)CN)cc1` [compound 152, N—((R)-1-(5-(2-(1H-indol-3-yl)ethyl)-4-(4-methoxybenzyl)-4H-1,2,4-triazol-3-yl)-2-(1H-indol-3-yl)ethyl)-2-aminoacetamide]: 138 nM; `COc1ccc(Cn2c(CCc3ccccc3)nnc2[C@@H](Cc2c[nH]c3ccccc23)NC(=O)CCc2cccnc2)cc1` [compound 59, (R)—N-(1-(4-(4-methoxybenzyl)-5-phenethyl-4H-1,2,4-triazol-3-yl)-2-(1H-indol-3-yl)ethyl)-3-(pyridin-3-yl)propanamide]: 173 nM; `COc1ccc(Cn2c(CCc3ccccc3)nnc2[C@@H](Cc2c[nH]c3ccccc23)NC(=O)[C@@H]2CCCN2)c(OC)c1` [compound 68, (S)—N—((R)-1-(4-(2,4-dimethoxybenzyl)-5-phenethyl-4H-1,2,4-triazol-3-yl)-2-(1H-indol-3-yl)ethyl)pyrrolidine-2-carboxamide]: 44 nM.
Next, `COc1ccc(Cn2c(CCc3ccccc3)nnc2[C@@H](Cc2c[nH]c3ccccc23)NC(=O)c2ccncc2)cc1` [compound 77, (R)—N-(1-(4-(4-methoxybenzyl)-5-phenethyl-4H-1,2,4-triazol-3-yl)-2-(1H-indol-3-yl)ethyl)isonicotinamide]: 119 nM; `COc1ccc(Cn2c(CCc3ccccc3)nnc2[C@@H](Cc2c[nH]c3ccccc23)NC(=O)[C@H]2CCCCN2)c(OC)c1` [compound 63, (R)—N—((R)-1-(4-(2,4-dimethoxybenzyl)-5-phenethyl-4H-1,2,4-triazol-3-yl)-2-(1H-indol-3-yl)ethyl)piperidine-2-carboxamide]: 210 nM; `COc1cccc(Cn2c(CCc3c[nH]c4ccccc34)nnc2[C@@H](Cc2c[nH]c3ccccc23)NC(=O)C(C)(C)N)c1` [compound 6, (R)—N-(1-(5-(2-(1H-indol-3-yl)ethyl)-4-(3-methoxybenzyl)-4H-1,2,4-triazol-3-yl)-2-(1H-indol-3-yl)ethyl)-2-amino-2-methylpropanamide]: 18 nM.
